{"source": "patent US4399817A", "about": "“Boron containing polyphosphonates for the treatment of calcific tumors” (The Procter & Gamble Company, priority 1981, dated 1983)", "key": {"[1]": {"test": "Oral tablets followed by neutron irradiation in patient with calcified tumor (Example IX)", "format": "in vivo, patient (human)", "protocol": "Tablets are prepared by conventional methods, formulated as follows: […]"}, "[2]": {"test": "Water solubility (remark in synthesis)", "format": "physicochemical", "protocol": "1,2-Diphosphono-o-carborane was prepared as follows: To a solution of 5 g o-carborane in dry THF was added dropwise 46.7 ml of a 1.5 N solution of n-butyllithium at 0° C. To the mixture was then quickly added 11 g diethyl chlorophosphite. The solution was refluxed for several hours. The THF was evaporated. The resulting residue contained unreacted o-carborane and 1,2-di(diethyl phosphite) o-carborane. The latter was hydrolized to the corresponding acid in 500 ml 6 N HCl by refluxing during 24 hours, after which the remaining HCl solution was evaporated. […] The water was then evaporated, and the residue mixed with 50 ml 10% hydrogen peroxide. The mixture was carefully refluxed until the reaction was completed. The structure of 1,2-diphosphono-o-carborane was verified by ^31 P and ^11 B NMR."}, "[3]": {"test": "Crystal Growth Inhibition Test", "conditions": "for Lag Time: pH 7.4", "protocol": "The test is conducted as follows:\n50 ml of a 0.01 M KH2 PO4 stock solution is diluted with 1000 ml N2 purged distilled water. 1 ml of an aqueous solution of the polyphosphonate to be tested (at a concentration to provide the desired ultimate concentration in the reaction mixture) is added to the diluted KH2 PO4 solution and the solution is adjusted to pH 7.4 with potassium hydroxide. To this solution is added 50 ml of a 0.0175 N CaCl2 solution preadjusted to pH 7.4. The KOH consumption is recorded as a function of time. The rate of KOH consumption is directly related to the rate of calcium phosphate formation. In the absence of polyphosphonate the formation of calcium phosphate starts at t=o, i.e. when the solutions of KH2 PO4 and CalCl2 are mixed. Low levels of polyphosphonates are capable of inhibiting the formation of calcium phosphate for 20 minutes or longer. This effect depends on the propensity of the polyphosphonates to adsorb on calcium phosphate crystal nuclei.\n1-Methyl, 2-(2,2-ethane diphosphonic acid) o-carborane (MECB) was subjected to the Crystal Growth Inhibition Test."}, "[4]": {"test": "Oral capsules followed by neutron irradiation in adult with a bone tumor (Example VIII)", "format": "in vivo, adult (human)", "conditions": "oral capsules (350 mg MECB or replacement) twice daily, ten days; 37 eV neutron beam about 24 hrs after last capsule", "protocol": "Capsules are prepared by conventional methods, comprised as follows:\nTo a 76 kg adult with a bone tumor are administered orally twice daily the above capsules for a period of ten days. About 24 hrs after the last capsule is administered, the tumor site is irradiated with a 37 eV neutron beam of 2.4×10^8 neutrons cm^-2 s^-1."}, "[5]": {"test": "Animal skeletal uptake test (99mTc scan)", "format": "in vivo, Rabbits", "conditions": "99mTc-labelled solution, 1.0 ml injected; scanned at 3 hrs and 21 hrs", "protocol": "In this test the skeletal uptake of a polyphosphonate compound is established as follows:\nA reducing solution is prepared by mixing 5.0 ml of a 0.34 N NTA solution, 1.0 ml of a 0.84 M SnCl2 solution and 3.0 ml H2 O. The pH of the solution is adjusted to 5.6 with 1.0 N NaOH. 100 ul of the reducing solution is added to 1.0 ml of a ^99m TcO4^- solution, containing 19.6 mCi. The reduction of TcO4^- is checked by TLC. 0.9 ml of a 35 mg/ml solution of a boron polyphosphonate is added to the reduced technetiate solution. Rabbits are injected with 1.0 ml each of this solution. The animals are scanned for skeletal uptake at 3 hrs and 21 hrs after injection."}}}
{"compound": "1,2-di(2-chloro-2,2-ethane diphosphonic acid)o-carborane [DC1EDP]", "values": [{"measurement": "deposition of 10B in the calcified tumor tissue", "setting": "[1]; oral tablets (25 mg) four times daily", "value": "significant amounts"}, {"measurement": "levels of localized alpha particles emitted", "setting": "[1]; oral tablets four times daily, irradiation by 37 eV neutrons", "value": "effective levels"}]}
{"compound": "1,2-dicarbaclosododeca borane (12) [o-carborane]", "values": [{"measurement": "solubility in water", "setting": "[2]", "value": "not soluble in water"}]}
{"compound": "1-Methyl, 2-(2,2-ethane diphosphonic acid) o-carborane [MECB]", "values": [{"measurement": "Lag Time", "setting": "[3]; Concentration 1 × 10^-6 Mole", "value": 25, "unit": "min"}, {"measurement": "Lag Time", "setting": "[3]; Concentration 2 × 10^-6 Mole", "value": 37, "unit": "min"}, {"measurement": "capability to retard the formation of calcium phosphate", "setting": "[3]; compared with Cl2 MDP, Table I", "value": "the same as that of Cl2 MDP"}, {"measurement": "level of alpha and Li particles generated in the tumor tissue", "setting": "[4]", "value": "effective level"}, {"measurement": "skeletal affinity", "setting": "[5]", "value": "high skeletal affinity"}]}
{"compound": "O=P(O)(O)C(Cl)(Cl)P(=O)(O)O", "note": "[Cl2 MDP, dichloromethylene diphosphonate, reference compound]", "values": [{"measurement": "Lag Time", "setting": "[3]; Concentration 1 × 10^-6 Mole", "value": 18, "unit": "min"}, {"measurement": "Lag Time", "setting": "[3]; Concentration 2 × 10^-6 Mole", "value": 41, "unit": "min"}]}
{"compound": "CC(O)(P(=O)(O)O)P(=O)(O)O", "note": "[EHDP, Ethane hydroxy diphosphonate, reference compound]", "values": [{"measurement": "Lag Time", "setting": "[3]; Concentration 1 × 10^-6 Mole", "value": 82, "unit": "min"}]}
